The values that follow come from the NIST ThermoML archive (doi:10.1016/j.jct.2014.09.004).

± gives the expanded uncertainty stated by the source.

The conditions of this data set: Liquid; pulse heating.
For the compound `c1cc2c3c(cccc3c1)CC2` [acenaphthene], the Critical pressure is 3700 ± 110 kPa and the Critical temperature came out at 820 ± 8 K.

Take `c1ccc2c(c1)ccc1ccccc12` [phenanthrene]: the Critical pressure is 3250 ± 100 kPa and the Critical temperature is recorded as 893 ± 9 K.

Turning to `c1ccc2c(c1)Cc1ccccc1-2` [fluorene], the Critical pressure came out at 3180 ± 100 kPa and the Critical temperature came out at 836 ± 8 K.

In the case of `c1cc2ccc3cccc4ccc(c1)c2c34` [pyrene], the Critical pressure was 3030 ± 90 kPa and the Critical temperature is 974 ± 10 K.

As for `c1ccc2cc3ccccc3cc2c1` [anthracene], the Critical pressure came to 3170 ± 100 kPa and the Critical temperature turned out to be 894 ± 9 K.
